Experimental data reported in ChEMBL document CHEMBL1201862, “PubChem BioAssay data set” (2004).
Activity calls are given as the source filed them.

What was measured:
[1] = target: T1, Oxysterols receptor LXR-beta (Homo sapiens, UniProt P55055); type: functional, cell-based;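 also: Cell-based luminescence dose-response assay of agonist activity at LXR, run as a confirmatory counterscreen to a daf-12 agonist screen; HEK293 cells with Gal4-LXR fusion and GAL4-driven luciferase reporter; agonist potency from rising luciferase signal of a Gal4-LXR reporter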
T1 sequence (P55055 whole entry): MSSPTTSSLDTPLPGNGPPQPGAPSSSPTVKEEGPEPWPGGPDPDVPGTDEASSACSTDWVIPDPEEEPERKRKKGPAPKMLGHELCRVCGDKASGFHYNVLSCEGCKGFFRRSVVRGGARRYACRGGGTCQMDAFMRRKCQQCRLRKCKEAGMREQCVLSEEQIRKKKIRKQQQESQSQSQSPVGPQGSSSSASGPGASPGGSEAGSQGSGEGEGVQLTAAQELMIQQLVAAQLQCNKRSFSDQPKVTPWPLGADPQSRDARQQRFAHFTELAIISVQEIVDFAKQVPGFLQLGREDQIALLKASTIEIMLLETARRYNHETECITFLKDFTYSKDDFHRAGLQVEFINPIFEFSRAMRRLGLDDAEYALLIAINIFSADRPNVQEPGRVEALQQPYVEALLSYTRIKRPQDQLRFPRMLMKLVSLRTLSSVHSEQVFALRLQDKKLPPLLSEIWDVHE

[2] = Luminescence Cell-Based Dose Confirmation HTS to Identify Inhibitors of Platelet Dense Granule Release. [Related pubchem assays: 1663 (Primary HTS), 1678 (Summary of Project)]; type: functional
[3] = HepG2 cell cytotoxicity, dose response, cytotoxicity control, plate reader, cherry-pick, antagonist series (AID 743416); type: functional, cell-based
[4] = MC4R antagonists, dose response, counter-screen for LGR2 antagonist project, cell-based, plate reader, cherry pick (AID 743444); type: functional;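 also: transfected HEK 293 cells stimulated with alpha-MSH peptide; potency of inhibitors of the alpha-MSH evoked signal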
Orexin receptor type 2 [5] = target: T2, Orexin receptor type 2 (Homo sapiens, UniProt O43614); test: Counterscreen assay for antagonists of the orexin 1 receptor (OX1R; HCRTR1): Homogeneous Time Resolved Fluorescence (HTRF)-based cell-based dose response assay for antagonists of the orexin 2 receptor (OX2R; HCRTR2), run by assay provider.; type: functional
T2 sequence (O43614 whole entry): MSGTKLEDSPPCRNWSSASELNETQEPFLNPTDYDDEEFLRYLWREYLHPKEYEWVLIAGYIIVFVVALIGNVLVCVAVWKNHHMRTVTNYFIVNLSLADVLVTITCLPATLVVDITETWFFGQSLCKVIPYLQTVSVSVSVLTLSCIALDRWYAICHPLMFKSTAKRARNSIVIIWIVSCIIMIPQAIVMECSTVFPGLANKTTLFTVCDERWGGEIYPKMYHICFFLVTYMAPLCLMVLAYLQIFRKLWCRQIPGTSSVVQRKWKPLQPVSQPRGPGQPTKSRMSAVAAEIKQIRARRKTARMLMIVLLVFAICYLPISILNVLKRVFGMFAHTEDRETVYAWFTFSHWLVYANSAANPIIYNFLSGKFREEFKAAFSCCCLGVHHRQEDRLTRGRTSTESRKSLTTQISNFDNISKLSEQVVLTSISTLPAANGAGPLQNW

[6] = target: Luciferin 4-monooxygenase (Photinus pyralis, UniProt P08659); test: firefly luciferase enzyme inhibitors, dose response, biochemical, luminescence (AID 1891)
Sequence of Luciferin 4-monooxygenase (P08659 whole entry): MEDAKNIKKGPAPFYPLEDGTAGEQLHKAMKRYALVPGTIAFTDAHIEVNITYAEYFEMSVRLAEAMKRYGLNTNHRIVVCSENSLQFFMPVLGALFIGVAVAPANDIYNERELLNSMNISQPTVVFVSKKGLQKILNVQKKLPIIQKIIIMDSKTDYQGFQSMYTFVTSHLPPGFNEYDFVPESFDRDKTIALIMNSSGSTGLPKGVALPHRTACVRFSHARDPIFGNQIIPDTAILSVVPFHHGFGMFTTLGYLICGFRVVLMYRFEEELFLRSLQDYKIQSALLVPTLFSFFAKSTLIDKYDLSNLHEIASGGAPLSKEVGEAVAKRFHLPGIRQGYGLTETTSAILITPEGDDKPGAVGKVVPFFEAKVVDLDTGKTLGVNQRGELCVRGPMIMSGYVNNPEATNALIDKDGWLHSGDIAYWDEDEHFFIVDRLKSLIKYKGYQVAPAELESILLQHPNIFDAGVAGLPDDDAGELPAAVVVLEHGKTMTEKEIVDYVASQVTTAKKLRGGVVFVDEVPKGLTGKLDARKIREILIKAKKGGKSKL

[7] = cytotoxicity toward DRD oncogenic fibroblasts, dose response, cell-based, non-viral oncogenic, luminescence (AID 1934); type: functional; conditions: Homo sapiens
[8] = A549 cell cytotoxicity, dose response, cytotoxicity control, plate reader, cherry-pick, antagonist series (AID 743412); type: functional, cell-based
[9] = (§1) Counterscreen for antagonists of the orexin 1 receptor (OX1R; HCRTR1): Fluorescence-based cell-based high throughput dose response assay to identify antagonists of the parental CHO cell line. [Related pubchem assays (depositor defined):AID434989, AID435008, AID463079, AID485270, AID492963, AID492964, AID492965, AID493232, AID504699, AID504701]; type: functional
[10] = target: T3, Orexin/Hypocretin receptor type 1 (Homo sapiens, UniProt O43613); test: Homogeneous Time Resolved Fluorescence (HTRF)-based cell-based high throughput dose response assay for antagonists of the orexin 1 receptor (OX1R; HCRTR1). [Related pubchem assays (depositor defined):AID434989, AID435008, AID463079, AID485270, AID492963, AID492964, AID492965, AID493232, AID504717, AID504718]; type: functional
T3 sequence (O43613 whole entry): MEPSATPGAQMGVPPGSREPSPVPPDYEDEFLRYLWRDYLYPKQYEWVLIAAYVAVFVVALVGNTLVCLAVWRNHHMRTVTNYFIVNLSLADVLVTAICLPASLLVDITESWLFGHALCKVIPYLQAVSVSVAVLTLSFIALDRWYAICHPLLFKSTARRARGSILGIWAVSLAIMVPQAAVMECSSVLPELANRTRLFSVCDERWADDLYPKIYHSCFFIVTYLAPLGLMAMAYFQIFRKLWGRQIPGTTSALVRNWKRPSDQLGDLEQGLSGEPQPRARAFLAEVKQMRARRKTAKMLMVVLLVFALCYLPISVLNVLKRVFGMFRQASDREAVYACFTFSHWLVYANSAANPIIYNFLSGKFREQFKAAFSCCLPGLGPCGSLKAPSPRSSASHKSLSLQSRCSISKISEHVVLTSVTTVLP

BJ [11] = test: cells; type: functional, cell-based; conditions: Homo sapiens
BJ [12] = test: cytotoxicity toward Ras-transformed BJeLR fibroblasts, dose response, cell-based, alamar blue fluorescence, cherrypicked samples (AID 2631); type: functional; conditions: Homo sapiens;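 also: confirmatory dose-response assay in RAS-dependent BJ fibroblasts engineered with TERT, LT and ST, with cytotoxicity read by fluorescence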
BJ [13] = test: cytotoxicity toward BJ-TERT fibroblasts, dose response, cell-based, RAS-independent, luminescence (AID 1933); type: functional; conditions: Homo sapiens
[14] = target: T3, Orexin/Hypocretin receptor type 1; test: Fluorescence-based cell-based high throughput dose response assay for antagonists of the orexin 1 receptor (OX1R; HCRTR1). [Related pubchem assays (depositor defined):AID434989, AID435008, AID463079, AID485270, AID492963, AID492964, AID492965, AID493232, AID504717, AID504718]; type: functional
[15] = A Cell Based Secondary Assay To Explore Cytotoxicity of Compounds that Sensitize Mycobacterium Tuberculosis to Beta-Lactam Antibiotics.; type: functional
[16] = LGR2 antagonists, dose response, cell-based, HEK293, CRE-luciferase reporter, cherry pick, set 2 (AID 743343); type: functional;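 also: transfected cells were stimulated with diluted bursicon conditioned medium after compound addition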
BJ [17] = test: cytotoxicity toward BJ-TERT-LT-ST fibroblasts, dose response, cell-based, RAS-independent, luminescence (AID 1935); type: functional; conditions: Homo sapiens;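 also: BJ fibroblasts immortalized with TERT plus LT and ST oncogenes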
CHO-K1 = test: as §1, with “Homogeneous time resolved fluorescence (HTRF)-based” for “Fluorescence-based”, “cell-based” for “cell-based high throughput”, “CHO-K1” for “CHO”; type: functional; conditions: Cricetulus griseus;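 also: potency for inhibition of ATP-stimulated IP1 production as antagonists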
Orexin receptor type 2 [18] = target: T2, Orexin receptor type 2; test: Counterscreen assay for antagonists of the orexin 1 receptor (OX1R; HCRTR1): Fluorescence-based cell-based dose response assay for antagonists of the orexin 2 receptor (OX2R; HCRTR2), run by assay provider.; type: functional
[19] = HEK293 cell cytotoxicity, dose response, cytotoxicity control, plate reader, cherry-picked samples (AID 743446); type: functional, cell-based
Protein skinhead-1 = target: T4, Protein skinhead-1 (Caenorhabditis elegans, UniProt P34707); type: functional
T4 sequence (P34707 whole entry): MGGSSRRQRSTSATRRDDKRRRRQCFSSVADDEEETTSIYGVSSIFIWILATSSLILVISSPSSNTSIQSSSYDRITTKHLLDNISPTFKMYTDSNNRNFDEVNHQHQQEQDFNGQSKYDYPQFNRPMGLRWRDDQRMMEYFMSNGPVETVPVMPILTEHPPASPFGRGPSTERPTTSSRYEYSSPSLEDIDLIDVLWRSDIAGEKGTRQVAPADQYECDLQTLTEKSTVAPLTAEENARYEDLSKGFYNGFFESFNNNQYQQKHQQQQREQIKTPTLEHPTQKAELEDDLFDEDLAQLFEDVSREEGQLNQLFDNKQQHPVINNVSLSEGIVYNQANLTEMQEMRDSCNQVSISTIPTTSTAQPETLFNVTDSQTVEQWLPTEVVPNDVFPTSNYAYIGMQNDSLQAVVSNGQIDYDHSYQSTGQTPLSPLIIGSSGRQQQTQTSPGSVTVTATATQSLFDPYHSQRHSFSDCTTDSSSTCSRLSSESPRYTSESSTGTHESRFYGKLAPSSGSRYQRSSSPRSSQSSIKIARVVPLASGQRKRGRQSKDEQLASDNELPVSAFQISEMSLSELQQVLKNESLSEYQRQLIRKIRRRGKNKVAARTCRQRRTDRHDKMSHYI

[20] = target: Melanin-concentrating hormone receptor 1 (Homo sapiens, UniProt Q99705); test: Late-stage fluorescence-based counterscreen for antagonists of the G-protein coupled receptor 7 (GPR7): cell-based dose response assay to identify antagonists of the melanin-concentrating hormone receptor 1 (MCHR1) Set 6.; type: functional
Sequence of Melanin-concentrating hormone receptor 1 (Q99705 whole entry): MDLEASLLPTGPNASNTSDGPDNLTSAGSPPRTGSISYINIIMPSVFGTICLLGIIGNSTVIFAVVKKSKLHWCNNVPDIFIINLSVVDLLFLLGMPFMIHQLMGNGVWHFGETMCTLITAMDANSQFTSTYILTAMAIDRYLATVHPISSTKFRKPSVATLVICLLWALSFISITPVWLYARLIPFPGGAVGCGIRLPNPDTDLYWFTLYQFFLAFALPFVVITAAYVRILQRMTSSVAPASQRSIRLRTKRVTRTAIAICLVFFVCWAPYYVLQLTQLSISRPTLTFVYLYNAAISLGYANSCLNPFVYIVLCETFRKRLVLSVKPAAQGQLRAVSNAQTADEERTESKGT

[21] = target: T5, Neuropeptides B/W receptor type 1 (Homo sapiens, UniProt P48145); test: GPR7 antagonist potency, late-stage follow-up, cell-based, fluorescence, dose response, set 6 (AID 588583); type: functional
T5 sequence (P48145 whole entry): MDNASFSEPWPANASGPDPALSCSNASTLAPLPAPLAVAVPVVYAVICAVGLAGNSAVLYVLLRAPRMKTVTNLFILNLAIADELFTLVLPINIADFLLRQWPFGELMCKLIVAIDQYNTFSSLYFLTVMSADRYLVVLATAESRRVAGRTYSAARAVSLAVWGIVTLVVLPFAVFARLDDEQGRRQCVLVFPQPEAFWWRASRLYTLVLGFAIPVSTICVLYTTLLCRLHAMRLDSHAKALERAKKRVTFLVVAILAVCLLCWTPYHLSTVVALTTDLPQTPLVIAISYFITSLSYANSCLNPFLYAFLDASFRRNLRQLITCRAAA

In the case of c1ccc2nc(-c3nc4ccccc4o3)ccc2c1, the EC50 [1] is reported as > 67.5 µM (inactive), the EC50 [2] is reported as 4.38 µM (active) and the AC50 [3] is reported as > 52 µM (inactive). For the same molecule, the AC50 [4] was 2.72 µM (active), the IC50 (Orexin receptor type 2 [5]) was 0.006 µM (active) and the EC50 [6] was 1.36 µM (active). For the same molecule, the EC50 (cells) was > 67.5 µM (inactive), the EC50 [7] was 7.36 µM (active) and the AC50 [8] was 22.5 µM (active). For the same molecule, the IC50 [9] was > 49.8 µM (inactive), the IC50 [10] was 0.954 µM (active) and the EC50 (BJ [11]) was 8.74 µM (active). The EC50 (BJ [12]) was > 133 µM (inactive), the EC50 (BJ [13]) was 10.5 µM (active) and the IC50 [14] was 5.46 µM (active). For the same molecule, the CC50 [15] was > 40 µM (active), the AC50 [16] was 3.53 µM (active) and the EC50 (BJ [17]) was > 150 µM (inconclusive). The IC50 (CHO-K1) was > 66.2 µM (inactive), the IC50 (Orexin receptor type 2 [18]) was 41.7 µM (inactive) and the AC50 [19] was 11.1 µM (active). The IC50 (Protein skinhead-1) was 9.69 µM (active).
For N#CC(c1ccccc1)c1c(Cl)cnn(C2c3ccccc3-c3ccccc32)c1=O (centres undefined), the IC50 [20] was 2.22 µM (active) and the IC50 [21] was 2.22 µM (active).
